The source of these data is paper PMC11987438, “A novel approach utilizing spirocyclic thiopyrimidinone compounds against herpes simplex virus with underlying antiviral mechanisms of action” (Virology Journal, 2025).

The test system of data set [1] is herpes simplex virus type 2 (HSV-2). The experiment in a line: Inhibition mechanism of action: virucidal. It counts as cell-based, human herpes simplex virus type 2. The following applies: compound mixed with HSV-2 (MOI = 1) 1 h at room temperature before inoculation of Vero cells, 72 h, MTT. On the procedure:
(§1) To gain a better understanding of how each compound’s antiviral activity inhibits specific steps in the viral cycle, we investigated three mechanisms: virus adsorption, virus replication, and viral fusion (virucidal). For the adsorption mechanism, we seeded 100 µl of cell suspension into 96-well cell culture plates under the previously mentioned conditions. After 24 h, the medium was discarded, and the adherent cells were washed with 1x PBS. Then, we added 100 µl of each promising compound at a pretested safe cytotoxic concentration (CC50) to the cells in triplicate. The plates were then incubated at 4 °C for 1 h to allow the compounds to adsorb onto the cell receptors. After incubation, the compound was removed, and the cells were washed again with 1x PBS. Next, we added 100 µl of the virus mixture (MOI = 1) to each well and incubated it for 1 h at 37 °C in a CO2 incubator. The virus was removed, and the cells were washed once more with 1x PBS. Finally, we added 100 µl of maintenance media containing 3% bovine serum albumin (BSA) and incubated the plates for 72 h at 37 °C in a 5% CO2 incubator. For the replication mechanism, we added 100 µl of diluted virus (MOI = 1) to a preseeded 96-well cell culture plate and incubated it for 1 h at 37 °C in a CO2 incubator. After incubation, the virus was removed, and 100 µl of each compound was added in triplicate. The plates were then incubated for 1 h at 37 °C in a CO2 incubator. Next, 100 µl of maintenance medium was added to each well. For the virucidal mechanism, we mixed an equal volume of the safe concentration of the pretested compound with the virus dilution (MOI = 1) and incubated the mixture at room temperature for 1 h. We subsequently prepared twofold serial dilutions of the mixture and inoculated them into the cells, which were then incubated for 1 h at 37 °C in a CO2 incubator. After incubation, the supernatant was removed, the cells were washed, and 100 µl of maintenance media was added. […] Finally, we measured the absorbance at λ = 570 nm via a plate reader (FLUOstar Omega Ω).

The nature of data set [2]: Cytotoxicity screening via crystal violet assay. It counts as cell-based. Conditions: African green monkey, Vero cells. As to the method: A volume of 100 µL of cell suspension containing 10^4 cells was placed in each well of a 96-well plate. The plates containing the cells were then placed in a 5% humidified CO2 incubator at 37 °C for 24 h to allow the cells to form a confluent monolayer. By twofold serial dilution, each compound was diluted in 0.01 mL of medium, starting with a concentration of 1000 µg/ml. The diluted compounds were then cultured for 72 h at 37 °C in an environment with 5% CO2. Each concentration was tested 3 times. After the incubation period, the supernatant was discarded, and the cells were washed with 1x phosphate-buffered saline (PBS). The cells were then fixed with 100 µL of 10% formaldehyde and incubated at room temperature for 20 min. The cells were subsequently washed five times with running water. Next, 50 µL of a 0.1% solution of crystal violet dye (LOBA CHEMIE. LTD; C.I.No. 42555) was added to each well and incubated for 15 min. The cell monolayers were washed again and allowed to air dry. Finally, the crystal violet dye was dissolved by adding 200 µL of methanol, and the mixture was incubated for 20 min. The absorbance was measured via an ELISA plate reader (FLUOstar Omega Ω) at a wavelength of 570 nm. Cell viability was calculated as a percentage of the average optical density of the cell controls, which was set to 100%. The 50% cytotoxic concentration (CC50) was calculated via mean dose‒response curves via GraphPad Prism.

The test system of data set [3] is herpes simplex virus type 2 (HSV-2). The experiment in a line: Inhibition mechanism of action: virus adsorption. The data set is classed as cell-based, human herpes simplex virus type 2. Conditions: Vero cells pretreated with compound at safe concentration 1 h at 4 °C, then HSV-2 MOI = 1, 72 h, MTT. On the procedure: as §1, with “incubator.” for “incubator. After incubation, the virus was removed, and 100 µl of each compound was added in triplicate. The plates were then incubated for 1 h at 37 °C in a CO2 incubator. Next, 100 µl of maintenance medium was added to each well. For the virucidal mechanism, we mixed an equal volume of the safe concentration of the pretested compound with the virus dilution (MOI = 1) and incubated the mixture at room temperature for 1 h. We subsequently prepared twofold serial dilutions of the mixture and inoculated them into the cells, which were then incubated for 1 h at 37 °C in a CO2 incubator. After incubation, the supernatant was removed, the cells were washed, and 100 µl of maintenance media was added.”

For data set [4] the test system is unchanged. The experiment in a line: Antiviral activity screening by MTT. It counts as cell-based, human herpes simplex virus type 2. Conditions: for IC50: Human alphaherpesvirus 2, HSV-2 (MOI = 1) in Vero cells, 72 h, MTT; for SI: selectivity index, CC50 (Vero) / IC50 (HSV-2). On the procedure: In accordance with the previous section, the CC50 (50% cytotoxic concentration) of each compound was determined as the starting point for screening its antiviral activity. A volume of 100 µL of cell suspension containing 10^4 cells was added to each well of a 96-well plate. The plates with the cells were then placed in a 5% humidified CO2 incubator at 37 °C for 24 h to allow the cells to adhere and form a monolayer. The cell monolayers were subsequently washed once with 1x phosphate-buffered saline (PBS) and infected with herpes simplex virus type 2 (HSV-2) (MOI = 1) in triplicate for 1 h. After the infection period, 100 µL of each compound’s serial dilution was added to the infected cells. A triplicate of untreated infected cells was included as a positive control (VC), and the mixture was incubated for 72 h at 37 °C in a 5% CO2 incubator. Following the 72-hour incubation, the supernatant medium was removed, and the cell monolayers were washed with 1x PBS. Then, 25 µL of a 0.5 mg/mL solution of MTT (3-(4,5-dimethylthiazol-2-yl)-2,5-diphenyltetrazolium bromide) obtained from Sigma‒Aldrich, Saint Louis, MO, USA, was added to each well and incubated for 2 h at 37 °C. The MTT reagent was subsequently discarded, and 200 µL of acidified isopropanol (1 N HCl in 99.9% isopropanol) was added to dissolve the formazan crystals formed by the viable cells. Finally, the color intensity was measured, and the absorbance was recorded via an ELISA plate reader. The data obtained were used to calculate the IC50 values (50% inhibitory concentration) via nonlinear regression analysis. This was accomplished by plotting the logarithm of the inhibitor concentration against the normalized response. The analysis was performed via GraphPad Prism 5 analysis software.

The test system is the same in data set [5]. The experiment in a line: Inhibition mechanism of action: virus replication. It counts as cell-based, human herpes simplex virus type 2. Conditions: Vero cells infected with HSV-2 MOI = 1 for 1 h, then compound, 72 h, MTT. On the procedure:
as §1

In data set [6] the test system is Caspase-3 protein expression. The experiment in a line: Western blot of Caspase-3 protein expression in HSV-2-infected Vero cells. It counts as cell-based, African green monkey. Conditions: HSV-2-infected Vero cells (MOI = 1) treated at IC50; 1, 3, 6, 12 and 24 h postinfection. On the procedure:
A 3 ml cell suspension was cultured in six-well cell culture plates supplemented with complete DMEM and then incubated at 37 °C in a 5% CO2 incubator for 24 h. After incubation, the supernatant was discarded, and the cell monolayer was washed with 3 ml of 1x PBS. The cell monolayer was then treated in duplicate according to the IC50. Duplicates for cell and virus control were included. The cell pellets were collected at 1, 3, 6, 12, and 24 h postinfection. The cell pellets were lysed with ice-cold RIPA lysis buffer supplemented with fresh protease inhibitor cocktail, incubated for 30 min on ice, and centrifuged at 15,000 RPM at 4 °C for 20 min, after which the supernatant was transferred to a fresh tube. The total water-soluble protein concentration was quantified via a bicinchoninic acid protein assay kit (Micro BCA™ Protein Assay Kit, REF: 23235; Thermo Scientific). Ten micrograms of protein were loaded in 2x Laemmli buffer and separated via 12% sodium dodecyl sulfate–polyacrylamide gel electrophoresis (SDS‒PAGE) along with a protein ladder (Cat. No. PM008-0500, GeneDirex, Taiwan). The proteins were transferred to a 0.2 μm PVDF membrane (REF.03010040001, Sigma Aldrich, St. Louis, MO, USA) by a Mini-PROTEAN® Tetra Cell and Mini Trans-Blot (Bio-Rad) in transfer buffer (Bio-Rad Tris/Glycine transfer buffer Cat. #1610734) for 45 min at 100 V and 350 mA. β-actin (REF. No. MA5-11869; Invitrogen) was detected as a housekeeping protein against the Caspase-3 mAb (REF. No. 9662 S, Cell Signaling, Danvers, MA, USA) at a 1:1000 dilution via horseradish peroxidase-conjugated anti-mouse IgG (61-6520; Invitrogen) and anti-rabbit IgG (31460; Invitrogen) diluted 1:3000. Bands were detected via SuperSignal™ West Pico PLUS Chemiluminescent Substrate enhanced chemiluminescence (ECL, REF. 34577, Thermo Scientific, USA). Images were captured with a Bio-Rad ChemiDoc gel documentation imaging system and analyzed by Image Lab (Bio-Rad 6.1).

In brackets after ≈: the same amount, converted by molar mass. Entries after “also recorded” stand apart in the source; their conditions may differ.

For the molecule `CSC1NC(=O)C(C#N)C2(CCCCC2)N1` (stereo not drawn) [Compound 2], the “inhibition by virucidal mechanism” value in data set [1] worked out at 8%. Besides, the CC50 at 72 h in data set [2] stood at 566 µg/mL (≈ 2360 µM). The “inhibition of HSV-2 adsorption” value in data set [3] was found to be 32%. Further, the IC50 in data set [4] amounted to 130 µg/mL (≈ 544 µM). Also, in data set [5], the “inhibition of HSV-2 replication” value was 26%. In data set [6], the “Caspase-3 protein expression level vs HSV-2 virus control” value is on record as “decreased; also recorded: slight changes”.
As to `CC(=O)C(SC1NC(=O)C(C#N)C2(CCCCC2)N1)C(=O)Nc1ccccc1` (stereo not drawn) [Compound 3, 2-((5-cyano-4-oxo-1,3-diazaspiro[5.5]undecan-2-yl)thio)-3-oxo-N-phenylbutanamide], the “inhibition by virucidal mechanism” value in data set [1] amounted to 8%. Further, the CC50 at 72 h in data set [2] was 509 µg/mL (≈ 1270 µM). In addition, in data set [4], the IC50 turned out to be 45.4 µg/mL (≈ 113 µM). The “inhibition of HSV-2 replication” value in data set [5] was found to be 34%. Further, in data set [6], the “Caspase-3 protein expression level vs HSV-2 virus control” value is reported as “decreased; also recorded: significant decrease”.
Consider `N#CC1(/N=N/c2ccccc2)C(=O)NC(=S)NC12CCCCC2` (stereo not drawn) [Compound 5a], for which the midpoint of cytotoxicity in data set [2], the CC50 at 72 h, lay at 43.9 µg/mL (≈ 134 µM). In data set [4], half-maximal inhibition (IC50) required 974 µg/mL (≈ 2970 µM) and the SI came out at 0.045.
The matching figures for `N#CC1(/N=N/c2ccc(S(N)(=O)=O)cc2)C(=O)NC(=S)NC12CCCCC2` (stereo not drawn) [Compound 5b]: 124 µg/mL (≈ 306 µM), 536 µg/mL (≈ 1320 µM) and 0.231.
For the molecule `N#CC1(/N=N/c2ccc(S(=O)(=O)Nc3ncccn3)cc2)C(=O)NC(=S)NC12CCCCC2` (stereo not drawn) [Compound 5c], in data set [1], the “inhibition by virucidal mechanism” value is on record as 15%. The same molecule registered a CC50 at 72 h in data set [2] of 53.7 µg/mL (≈ 111 µM). Further, in data set [3], the “inhibition of HSV-2 adsorption” value stood at 42%. In data set [4], half-maximal inhibition (IC50) required 13.9 µg/mL (≈ 28.8 µM) and the SI is reported as 3.84. Also, the “inhibition of HSV-2 replication” value in data set [5] is reported as 30%. In data set [6], the “Caspase-3 protein expression level vs HSV-2 virus control” value is recorded as “decreased; also recorded: slight changes”.
In data set [2], `N#CC1(/N=N/c2ccc(S(=O)(=O)Nc3ccccn3)cc2)C(=O)NC(=S)NC12CCCCC2` (stereo not drawn) [Compound 5d] came in with a CC50 at 72 h of 466 µg/mL (≈ 963 µM). Further, in data set [4], the IC50 came out at 217 µg/mL (≈ 449 µM) and the SI is on record as 2.14.
The matching figures for `N#CC1(/N=N/c2ccc(Cl)cc2)C(=O)NC(=S)NC12CCCCC2` (stereo not drawn) [Compound 5e]: 103 µg/mL (≈ 284 µM), 346 µg/mL (≈ 956 µM) and 0.296.
In the same order, the values of `N#CC1(/N=N/c2ccc(S(=O)(=O)Nc3nccs3)cc2)C(=O)NC(=S)NC12CCCCC2` (stereo not drawn) [Compound 5f] are 107 µg/mL (≈ 219 µM), 399 µg/mL (≈ 814 µM) and 0.268.
The matching figures for `CC(=O)C(SC1NC(=O)C(C#N)(/N=N/c2ccc(Cl)cc2)C2(CCCCC2)N1)C(C)=O` (stereo not drawn) [Compound 6a]: 62.4 µg/mL (≈ 135 µM), 53.8 µg/mL (≈ 116 µM) and 1.15.
Regarding `CC(=O)C(SC1NC(=O)C(C#N)(/N=N/c2ccc(S(N)(=O)=O)cc2)C2(CCCCC2)N1)C(C)=O` (stereo not drawn) [Compound 6b], half-maximal cytotoxicity in data set [2] (CC50 at 72 h) was put at 940 µg/mL (≈ 1860 µM). In data set [4], this molecule gave an IC50 of 5410 µg/mL (≈ 10700 µM) and an SI of 0.173.
For `CC(=O)C(SC1NC(=O)C(C#N)(/N=N/c2ccc(S(=O)(=O)Nc3ccccn3)cc2)C2(CCCCC2)N1)C(C)=O` (stereo not drawn) [Compound 6c], in data set [2], the half-maximal cytotoxic concentration (CC50) at 72 h came out at 42.1 µg/mL (≈ 72.1 µM). In data set [4], the IC50 was determined as 749 µg/mL (≈ 1280 µM) and the SI is 0.056.
